According to US11096917B2, “Composition for preventing or treating muscle diseases, comprising suberic acid or pharmaceutically acceptable salt thereof as active ingredient” (INDUSTRY-ACADEMIC COOPERATION FOUNDATION, YONSEI UNIVERSITY, priority 2017, dated 2021):

Experiments:
p-4E-BP1 = assay: Western blotting of p-4E-BP1 in dexamethasone-treated myotubes; assay type: cell-based, mouse; details: 100 μM suberic acid + 50 μM dexamethasone, 2 days, vs dexamethasone alone; FIG. 2A
Description: (§1) A mouse myoblast cell line (C2C12 cells) was purchased from the American Type Culture Collection (ATCC, Manassas, Va., USA), and the purchased cells were cultured at 37° C. in a 5% CO2 incubator using a 10% fetal bovine serum medium (Gibco-BRL). When the cultured cells reached 80% confluence, the cells were differentiated into myotubes using a 2% horse serum medium (Gibco-BRL).
(§2) From the fourth day of differentiation, the cells were treated with 50 μM dexamethasone (dexa; Sigma) and 100 μM suberic acid (CAS Number 505-48-6, Sigma) for 2 days.
(§3) The cells were treated with 50 μM dexamethasone (dexa; Sigma) in the same manner as in Example 1.
(§4) To perform Western blotting in the cells, 500 μL of a lysis buffer, which included 100 mM Tris-HCl (pH 7.4), 5 mM EDTA, 50 mM sodium pyrophosphate, 50 mM NaF, 100 mM orthovanadate, 1% Triton X-100, 1 mM phenylmethanesulfonyl fluoride, 2 μg/mL aprotinin, 1 μg/mL pepstatin A, and 1 μg/mL leupeptin, was added to each well from which a medium was removed, and the cell suspension was harvested, and then centrifuged at 4° C. and 1,300×g for 20 minutes. Thereafter, the middle layer was taken, and proteins were quantified according to the Bradford method (Bio-Rad). […] The bands visualized on the X-ray film were scanned, and then quantified using Quantity One analysis software (Bio-Rad).

MuRF1 = assay: RT-PCR of MuRF1 gene expression in dexamethasone-treated myotubes; assay type: cell-based, mouse; details: 100 μM suberic acid + 50 μM dexamethasone, 2 days, vs dexamethasone alone; FIG. 2B
Description: as §1, §2, §3
(§5) 1×10^7 mouse myoblast cells were added to 334 μL of a TRIzol solution, and pulverized. Thereafter, the resulting cell solution was centrifuged at 4° C. and 12,000× g for 10 minutes. The supernatant was transferred to a new tube, and 67 μL of chloroform was added thereto, and vortexed. The supernatant was again transferred to a new tube, and isopropanol was added so that a ratio of the supernatant and isopropanol was 1:1. […] A concentration of the extracted RNA sample was measured at wavelengths of 260 nm and 280 nm using a UV/VIS spectrophotometer (Beckman coulter, DU730), and the integrity of the RNA sample was determined by means of agarose gel electrophoresis. […]

C57BL/6N mice [1] = assay: Grip strength test in high-fat diet-induced muscle loss mice; assay type: in vivo, mouse; details: 0.2% suberic acid in high fat diet, 10 weeks, force (N) per weight (kg), vs high-fat diet mice; FIG. 3 (B)
Text: (§6) Twenty-four 5-week-old male C57BL/6N mice (Mating, Korea) were adapted to laboratory circumstances for a week while feeding a commercially available normal diet (rodent chow), and then assigned into three groups (a Chow group, a HFD group, and a suberic acid-treated group; n=8 mice per group) according to a randomized block design, and bred for 10 weeks. An obesity-inducing diet used in this experiment was a high fat diet (HFD: 40% fat calories, 17 g of lard+3% corn oil/100 g of diet), and a suberic acid-supplemented high fat diet (Suberic Acid) had the same compositions as the HFD, provided that the suberic acid-supplemented high fat diet included 0.2% suberic acid (Table 2). A normal diet group (Chow) took a commercially available rodent chow. The suberic acid was purchased from Sigma-Aldrich Corp.
To measure grip strength of the mice, at 10 weeks of breeding, the grip strength of the mice was measured using four limbs. A force (N) generated by a mouse gripping a wire grid was measured a total of five times using a grip strength meter (Daejong Instrument Industry Co., Ltd., Korea) equipped with a wire grid (20×10 cm), and an at least one-minute break between every measurement was provided. The experimental results were calculated by dividing the measured force (N) by the weight (kg) of the mouse. […]

C57BL/6N mice [2] = assay: H&E staining of muscle tissue, fiber diameter, in high-fat diet mice; assay type: in vivo, mouse; details: 0.2% suberic acid in high fat diet, 10 weeks, vs high-fat diet mice
Text: as §6
A muscle tissue was extracted from a mouse, immobilized with 10% formalin, stained with a Hematoxylin and Eosin (H&E) stain, and then submitted to the Korea CFC (Gyeonggi-do, Korea). […]
The statistical analysis of all data was carried out using a statistical package for the social sciences (SPSS version 21.0, IBM, Armonk, N.Y., USA) PC package. In this case, the analyzed numerical values are expressed as the mean±SEM, and a significant difference between the groups was verified using ANOVA.

[3] = tested on: mouse myoblast cell line (C2C12 cells); assay: Giemsa-Wright staining; thickness, length and fusion index of myotubes reduced by dexamethasone; assay type: cell-based; details: 100 μM suberic acid + 50 μM dexamethasone, 2 days, vs dexamethasone alone
Description: as §1, §2, §3
The myotubes prepared in Example 1 were washed twice with phosphate-buffered saline (PBS), and then immobilized with 100% methanol for 10 minutes. When the immobilization was completed, the myotubes were air-dried at room temperature for 10 minutes, and then stained for 30 minutes by dropwise addition of a Giemsa-Wright staining solution (ASAN Pharmaceutical Co., Ltd., Seoul) which is used to specifically stain myotubes.
The myotubes thus stained were photographed at 100× and 40× magnifications using a fluorescence microscope (IX 71, Olympus), and then analyzed using Image J software (USA). Six regions in each well were randomly selected and photographed using a microscope. The thicknesses, lengths and fusion indexes of at least 100 myoblast cells in each well were analyzed (in triplicate/group).

p-p70S6K1 = assay: Western blotting of p-p70S6K1 in dexamethasone-treated myotubes; assay type: cell-based, mouse; details: 100 μM suberic acid + 50 μM dexamethasone, 2 days, vs dexamethasone alone; FIG. 2A
Description: as §1, §2, §3, §4

MaFbx/atrogin-1 = assay: RT-PCR of MaFbx/atrogin-1 gene expression in dexamethasone-treated myotubes; assay type: cell-based, mouse; details: 100 μM suberic acid + 50 μM dexamethasone, 2 days, vs dexamethasone alone; FIG. 2B
Description: as §1, §2, §3, §5

O=C(O)CCCCCCC(=O)O [suberic acid]
amount of p-4E-BP1 protein (p-4E-BP1): significantly increased again
expression of MuRF1 (MuRF1): significantly decreased
increase in grip strength of the mice (C57BL/6N mice [1]): approximately 21%
increase in fiber diameter of the rectus femoris (C57BL/6N mice [2]; FIG. 4 (A)): 10%
increase in fiber diameter of the soleus (C57BL/6N mice [2]; FIG. 4 (B)): 15%
increase in thickness (diameter) of the myotubes ([3]; FIG. 1B): 58%
increase in fusion index of the myotubes ([3]; FIG. 1C): 53%
increase in length of the myotubes ([3]; FIG. 1D): 100%
amount of p-p70S6K protein (p-p70S6K1): significantly increased again
expression of MaFbx/atrogin-1 (MaFbx/atrogin-1): significantly decreased
